This data set can be described thus: Nitric oxide release profile of NONOates (nitric oxide analyzer). Type of data set: physicochemical. How it is done:
Using a Monitor Labs Model 8440 Nitric Oxide Analyzer, interfaced with an HP 3396 A Chromatography Integrator, the nitric oxide release from the above synthesized NONOates was measured. […] Teflon® flow meters were inserted at the beginning of the circuit just before entry into the analyzer, and a helium tank with regulator was connected to the first flow meter.
The release profile was performed by adding about 3 to about 8 mg of the NO donor molecules prepared above to 25 ml of phosphate-buffered saline (PBS) (pH 7.4) in an impinger bottle that was subjected to continuous stirring. Varying amounts of the lung surfactant Survanta was added to certain samples, as were the surfactants Tween® 20 and Tween® 80. Tween® is available from Fisher Scientific Company, Fair Lawn, N.J. Still in other examples, the NONOates were simply dissolved in THF. Although the NONOates are insoluble in aqueous solution, sonication pulverized the compound adequately to produce fine particles that increased the surface area of the compound allowing a suspension to form. Once the impinger bottle was assembled, it was held in a water sonicator bath and sonicated until the insoluble sample was pulverized into fine particles or an emulsion. The amount of liberated NO was determined by the daily or timely flushing of helium through the solution and into the analyzer. Typically, measurements were taken every 2-4 hours during the first 18 hours and then every 12 hours thereafter. Eventually, readings only needed to be taken every 24 hours as the end of the release profile was approached. Helium gas was flushed through the system at 12 psig and the first flow meter was set to 150 ml/min. The second flow meter was adjusted to allow maximum flow. The released data was then used to compile the release profiles represented in FIGS. 3-10. The release profiles as represented in FIGS. 3-10 depict NO release from the NONOates in nmol NO/mg NONOate versus time in hours.
Based on these release profiles, the half-life and % Release for each NONOate prepared above was calculated and is represented in Table I, which represents NO release in PBS at pH 7.4.

The text below walks through data of US6147068A, “Lipophilic polyamine esters for the site specific delivery of nitric oxide in pharmaceutical use” (The University of Akron, priority 1998, dated 2000).

With Dihexadecanylspermate-NONOate [DiHSNO], the “% Release (NO)” value (PBS, pH 7.4) is on record as “about 7.4%”.
In the case of `CC(C)CCC[C@@H](C)[C@H]1CC[C@H]2[C@@H]3CC=C4C[C@@H](OC(=O)CCN(CCCCN)[N+]([O-])=NO)CC[C@]4(C)[C@H]3CC[C@]12C` [CPNO, Cholesterylputreanine-NONOate], the half-life reads like this: (1% survanta, half-life (NO release)) 62 h; (5% & 10% survanta, half-life (NO release)) 39 h; (5% tween 20, half-life (NO release)) 104 h; (10% tween 20, half-life (NO release)) 72 h; (pbs, pH 7.4, half-life (NO release)) 60 h; (thf, pH 1, half-life (NO release)) 21 h. For the same compound, under “pbs, pH 7.4”, the “half-life (NO release)” value is “about 60 hr”.
